The experiment has as its system CD34+CD45RA− cell. Briefly: Hematopoietic stem cell expansion assay (CD34+CD45RA− cell count versus DMSO vehicle cultures). The settings on record: Homo sapiens, concentration that results in a 50% increase in CD34+CD45RA− cell count compared to vehicle cultures (DMSO), Table 1, pyridopyrrolopyrimidine series, read-out: Biological data EC50. The experiment is classed as cell-based. As for the experimental part:
As used herein, the term “EC50” is intended to mean the concentration that results in a 50% increase in CD34+CD45RA− cell count compared to vehicle cultures (DMSO).
Screening Assay: screening assays were conducted as described in the inventors' previous patent application, WO 2013/110198.
The following biological assays were used to assess the effect of the compounds of the invention on hematopoietic stem cell expansion The results are illustrated in FIGS. 1 to 6. Culture medium: The culture medium used consisted of serum-free medium supplemented with the following recombinant cytokines: interleukin-6, thrombopoietin, Flt-3 ligand, and stem cell factor, each at a final concentration of 100 ng/ml, in the presence of vehicle (DMSO), positive control (SR1), or compound of the invention or a combination of compounds. Cell Culture: CD34+ cell purity of initial harvests was higher than 90%, as determined by flow cytometry. The CD34+ CD45RA− subpopulation reached purity levels higher than 70%. Cells were plated at 40,000 cells/ml and incubated for 7 to 12-days at 37° C. in 5% CO2. For long term cultures, 200,000 CD34+cells/ml from mobilized PB were plated with serum free media supplemented with interleukin-6, thrombopoietin, Flt3 ligand, and stem cell factor, each at a final concentration of 100 ng/ml, in the presence of vehicle (DMSO), positive control, or a compound of the invention at 500 nM.

Take `CCN(CC)CCN(CC)c1nc(Cc2ccccc2)nc2[nH]c3cc(C(=O)OC)cnc3c12` [Compound 16, methyl 2-benzyl-4-((2-(diethylamino)ethyl)(ethyl)amino)-9H-pyrido[2′,3′:4,5]pyrrolo[2,3-d]pyrimidine-7-carboxylate]: the EC50 was in the range of 250 to 500 nM.

The values above are taken from US10647718B2, “Compounds and use thereof in the expansion of hematopoietic stem cells and/or hematopoietic progenitor cells” (UNIVERSITÉ DE MONTRÉAL, priority 2014, dated 2020).
